Measured values reported in PubChem BioAssay AID1963450 (Molecular Pharmacology Branch, DTP, NCI, 2024).

Test system: 556581-035-R-J1-PDC complex spheroid growth
Assay: Anticancer human tumor 556581-035-R-J1-PDC patient-derived ovarian carcinoma cell line growth inhibition [Asc]
Settings: for IC50: curve of first compound; for viability, T/C: stronger effect = lower value; active = viability on the fitted dose curve at most 10% of control; inactive = the rest
Experimental: Multicellular complex tumor spheroid response to apoptosis pathway targeting inhibitors Alrizomadlin, Pelcitoclax, and Dasminapant in combination with a variety of drugs and investigational agents in selected tumor cell lines
The MDM2 inhibitor alrizomadlin, the Bcl-2/Bcl-xL inhibitor pelcitoclax, and the IAPs inhibitor dasminapant were evaluated both individually and in combination with standard of care and investigational anticancer small molecules within a complex spheroid model of solid tumors. . Complex spheroids include a stromal component modeled by human endothelial cells (HUVEC) and fibroblasts modeled by human mesenchymal stem cells (MSCs). The concentration ranges selected for each drug and investigational agent were based upon clinically achievable concentrations if the clinical Cmax of the agent was known.
Compounds. The drugs and investigational agents: alrizomadlin (APG-115; NSC831270), pelcitoclax (APG-1252; NSC835773), dasminapant (APG-1387;NSC834197), TAK-243 (NSC785004), copanlisib (NSC809693), olaparib (NSC753686), talazoparib (NSC767125), cobimetinib (NSC 768068), eltanexor (KPT-8602, NSC 794443), abemaciclib (NSC 768073), sotorasib (NSC818433), adagrasib (NSC 831453), MRTX-1133 (NSC 836407), Iadademestat (ORY1001, NSC 806812), and RMC-4630 (NSC839698), were obtained from the NCI Developmental Therapeutics Program Chemical Repository. The FDA-approved anticancer drug set is available from the Developmental Therapeutics Program at https://dtp.cancer.gov/organization/dscb/obtaining/available plates.htm. […] The stock solutions were prepared in dimethyl sulfoxide (DMSO, Sigma-Aldrich, St. Louis, MO, cat. D2650) at 800-fold the tested concentration and stored at -70 degrees C prior to their use. All drugs and investigational agents were tested over a range starting from a high concentration at or near the clinical Cmax and decreasing in half-log increments. If the clinical Cmax for an agent had not been determined, the highest concentration tested was 10 microM.
The patient-derived cancer (PDC) cell lines include five colon adenocarcinomas: 186277-243-T-J2-PDC, 616215-338-R-J1-PDC, 439559-082-T-J2-PDC, 463943-066-T-J2-PDC, and 519858-162-T-J1-PDC; three pancreatic carcinomas: 323965-272-R-J2-PDC, 521955-158-R6-J3-PDC, and 521955-158-R2-J5-PDC; two uterine sarcomas: 327498-152-R-J2-PDC and 993429-296-R-J1-PDC; two rhabdomyosarcomas: 755483-174-R-J1-PDC and 772245-204-R-J1-PDC; two soft tissue sarcomas: 126254-015-R-J1-PDC and 494315-158-R-J1-PDC; two malignant fibrous histiocytomas: 317291-083-R-J1-PDC and 596521-263-R-J1-PDC; two breast carcinomas: 171881-019-R-J1-PDC and 885512-296-R-J2-PDC; and one ovarian carcinoma: 6556581-035-R-J-PDC were obtained from the NCI PDMR, (https://pdmr.cancer.gov). The established cell lines HSSY-2 synovial sarcoma (RRID:CVCL 8719), SYO-1 synovial sarcoma (RRID:CVCL_7146), MPNST malignant peripheral neural sheath tumor were obtained from the Sloan Kettering Institute. The following established cell lines were purchased from the American Type Culture Collection (ATCC, Manassas, VA), Sor the received from the NCI repository:, PANC-1 pancreatic carcinoma (CRL-1469, RRID:CVCL_0480), OVCAR-5 ovarian carcinoma (RRID:CVCL_1628), OVCAR-8 ovarian carcinoma (RRID:CVCL_1629), , MCF-7 breast carcinoma (CRL-12584, RRID:CVCL_0031), MDA-MB-231 breast carcinoma (CRL-12532, RRID:CVCL_0062), NCI-H1876 small cell lung carcinoma (CRL-5902, RRID:CVCL_1503), NCI-H510A small cell lung carcinoma (HTB-184, RRID:CVCL_1565), NCI-H1417 (CRL-5869, RRID:CVCL_1469), and NCI-H196 small cell lung carcinoma (CRL-5823, RRID:CVCL_1509). Dr. Peter Houghton (Greehey Children's Cancer Research Institute, University of Texas Health Science Center, San Antonio, TX) provided Rh-18 rhabdomyosarcoma (RRID:CVCL_1659). Pooled donor human umbilical vein endothelial cells (HUVEC, Lonza, cat. CC-2519) and human mesenchymal stem cells (hMSC, Lonza, cat. PT-2501) were purchased from Lonza (Walkersville, MD).
Cell Culture. […]
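Note: spheroids exposed to agents for 7 days before viability read.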

Cc1nc(N2CCC3(CC2)COC(C)C3N)c(CO)nc1Sc1ccnc(N)c1Cl (stereo not given) + Cc1c(S(C)(=O)=O)c(-c2cc(F)cc(N3CCN(c4ccc(NS(=O)(=O)c5ccc(NC(CCN6CCC(C(=O)OCCCP(=O)(O)O)CC6)CSc6ccccc6)c(S(=O)(=O)C(F)(F)F)c5)cc4)CC3)c2)c(-c2ccc(Cl)cc2)n1C(C)C
97 nM: IC50 (second compound 3.16 µM)
544 nM: IC50 (second compound 0.1 µM)
266 nM: IC50 (second compound 1 µM)
14.1 nM: IC50 (second compound 10 µM)
inactive: viability, T/C (second compound 0.1 µM, first compound 0.00949 µM) 81.7% | viability, T/C (second compound 0.1 µM, first compound 0.03 µM) 90.2% | viability, T/C (second compound 0.1 µM, first compound 0.0949 µM) 62.4% | viability, T/C (second compound 0.1 µM, first compound 0.3 µM) 57.5% | viability, T/C (second compound 0.1 µM, first compound 0.949 µM) 47% | viability, T/C (second compound 0.1 µM, first compound 3 µM) 36.2% | viability, T/C (second compound 0.316 µM, first compound 0.00949 µM) 72.5% | viability, T/C (second compound 0.316 µM, first compound 0.03 µM) 64.4% | viability, T/C (second compound 0.316 µM, first compound 0.0949 µM) 54.9% | viability, T/C (second compound 0.316 µM, first compound 0.3 µM) 53.8% | viability, T/C (second compound 0.316 µM, first compound 0.949 µM) 47.6% | viability, T/C (second compound 0.316 µM, first compound 3 µM) 32.8% | viability, T/C (second compound 1 µM, first compound 0.00949 µM) 62% | viability, T/C (second compound 1 µM, first compound 0.03 µM) 63.8% | viability, T/C (second compound 1 µM, first compound 0.0949 µM) 59.5% | viability, T/C (second compound 1 µM, first compound 0.3 µM) 49.1% | viability, T/C (second compound 1 µM, first compound 0.949 µM) 31.2% | viability, T/C (second compound 1 µM, first compound 3 µM) 30.6% | viability, T/C (second compound 3.16 µM, first compound 0.00949 µM) 55.5% | viability, T/C (second compound 3.16 µM, first compound 0.03 µM) 60.5% | viability, T/C (second compound 3.16 µM, first compound 0.0949 µM) 50.3% | viability, T/C (second compound 3.16 µM, first compound 0.3 µM) 35.7% | viability, T/C (second compound 3.16 µM, first compound 0.949 µM) 39.9% | viability, T/C (second compound 3.16 µM, first compound 3 µM) 29.8% | viability, T/C (second compound 10 µM, first compound 0.00949 µM) 50.8% | viability, T/C (second compound 10 µM, first compound 0.03 µM) 48.7% | viability, T/C (second compound 10 µM, first compound 0.0949 µM) 43.7% | viability, T/C (second compound 10 µM, first compound 0.3 µM) 30.7% | viability, T/C (second compound 10 µM, first compound 0.949 µM) 37.4% | viability, T/C (second compound 10 µM, first compound 3 µM) 22.3%
389 nM: IC50 (second compound 0.316 µM)
